Laboratory results taken from Sander's compilation of Henry's law constants.
Where “and” joins values, the source holds several entries; their conditions need not be identical. Equal values may be shown once.

Experiment: Henry solubility constant Hcp at 298.15 K (mol/(m3 Pa))
[1] = reference: Mabury and Crosby (1996)
[2] = reference: Murphy et al. (1983a)
[3] = reference: Cetin and Odabasi (2005)
[4] = reference: Charles and Destaillats (2005)
[5] = reference: Rochester and Symonds (1973)
[6] = reference: Buttery et al. (1971)
[7] = reference: McFall et al. (2020)
[8] = reference: Amoore and Buttery (1978)
[9] = reference: Warner et al. (1980)
[10] = reference: Christie and Crisp (1967)
[11] = reference: Souchon et al. (2004)
[12] = reference: Simpson and Lovell (1962)

With `O=C(O)c1ccccc1` [benzenecarboxylic acid] the “Henry solubility constant Hcp” value (reference: Li et al. (2007)) was 290.

For `CC(C)CO` [2-methyl-1-propanol], the “Henry solubility constant Hcp” value (reference: Butler et al. (1935)) was 0.83 and the “Henry solubility constant Hcp” value (reference: Snider and Dawson (1985)) was 1.

With `[Kr]` [krypton] the “Henry solubility constant Hcp” value (reference: Cosgrove and Walkley (1981)) was 2.6e-05, the “Henry solubility constant Hcp” value (reference: Crovetto et al. (1982)) was 2.5e-05 and the “Henry solubility constant Hcp” value (reference: Krause and Benson (1989)) was 2.5e-05. The “Henry solubility constant Hcp” value (reference: Morrison and Johnstone (1954)) was 2.4e-05 and the “Henry solubility constant Hcp” value (reference: von Antropoff (1910)) was 3.4e-05 and 2.8e-05.

With `Cc1cc(Cl)ccc1OCC(=O)O` [(2-methyl-4-chlorophenoxy)acetic acid] the “Henry solubility constant Hcp” value [1] was > 99.

For `Clc1ccccc1-c1ccccc1Cl` [2,2'-dichlorobiphenyl], the “Henry solubility constant Hcp” value [2] was 0.045.

With `Brc1ccc(Oc2ccc(Br)cc2Br)c(Br)c1` [2,2',4,4'-tetrabromodiphenyl ether] the “Henry solubility constant Hcp” value [3] was 0.87, the “Henry solubility constant Hcp” value [4] was 0.17 and the “Henry solubility constant Hcp” value (reference: Long et al. (2017)) was 0.91.

With `CCCC(=O)OC` [methyl butanoate] the “Henry solubility constant Hcp” value (reference: Aprea et al. (2007)) was 0.037 and the “Henry solubility constant Hcp” value (reference: Ioffe et al. (1984)) was 0.036.

In the case of `CC1CCCCC1` [methylcyclohexane], the “Henry solubility constant Hcp” value (reference: Ramachandran et al. (1996)) is reported as 0.00015.

In the case of `OCC(O)CO` [1,2,3-propanetriol], the “Henry solubility constant Hcp” value (reference: Butler and Ramchandani (1935)) is reported as 580.

In the case of `CCCCCC(C)=O` [2-heptanone], the “Henry solubility constant Hcp” value (reference: Chai et al. (2005)) is reported as 0.068 and the “Henry solubility constant Hcp” value (reference: Kim et al. (2000)) is reported as 0.062.

For `Clc1ccc(-c2c(Cl)ccc(Cl)c2Cl)cc1Cl` [2,3,3',4',6-pentachlorobiphenyl], the “Henry solubility constant Hcp” value [2] was 0.027.

For `OCC(F)(F)C(F)F` [2,2,3,3-tetrafluoro-1-propanol], the “Henry solubility constant Hcp” value (reference: Chen et al. (2003)) was 1.4 and the “Henry solubility constant Hcp” value [5] was 1.6.

In the case of `COc1nccnc1CC(C)C` [2-isobutyl-3-methoxypyrazine], the “Henry solubility constant Hcp” value [6] is reported as 0.2.

For `CCCCC` [pentane], the “Henry solubility constant Hcp” value (reference: Jou and Mather (2000)) was 8.7e-06 and the “Henry solubility constant Hcp” value (reference: Jönsson et al. (1982)) was 8.2e-06.

In the case of `O=C(O)C(Br)Br` [dibromoethanoic acid], the “Henry solubility constant Hcp” value (reference: Bowden et al. (1998a)) is reported as 2200.

In the case of `FC(F)(F)C(F)(F)C(Cl)Cl` [3,3-dichloro-1,1,1,2,2-pentafluoropropane], the “Henry solubility constant Hcp” value (reference: Kutsuna (2013)) is reported as 9.8e-05.

With `[CH3][Hg+].[OH-]` [hydroxymethylmercury] the “Henry solubility constant Hcp” value (reference: Iverfeldt and Persson (1985)) was 980.

With `OCCC(F)(F)C(F)(F)C(F)(F)C(F)(F)C(F)(F)C(F)(F)F` [1H,1H,2H,2H-perfluoro-1-octanol] the “Henry solubility constant Hcp” value (reference: Goss et al. (2006)) was 0.0015, the “Henry solubility constant Hcp” value (reference: Lei et al. (2004)) was 8.5e-05 and the “Henry solubility constant Hcp” value (reference: Wu and Chang (2011)) was 0.00017.

With `O=COCC(F)(F)F` [2,2,2-trifluoroethyl methanoate] the “Henry solubility constant Hcp” value (reference: Kutsuna et al. (2005)) was 0.0054.

With `OCCC(F)(F)C(F)(F)C(F)(F)C(F)(F)C(F)(F)C(F)(F)C(F)(F)C(F)(F)F` [1H,1H,2H,2H-perfluorodecan-1-ol] the “Henry solubility constant Hcp” value (reference: Lei et al. (2004)) was 0.00017 and the “Henry solubility constant Hcp” value (reference: Wu and Chang (2011)) was 0.0002.

For `CCN(CC)N=O` [N-nitrosodiethylamine], the “Henry solubility constant Hcp” value (reference: Klein (1982)) was 5.6 and the “Henry solubility constant Hcp” value (reference: Thompson et al. (2018)) was 0.012.

In the case of `CC(=O)C(C)(C)C` [3,3-dimethyl-2-butanone], the “Henry solubility constant Hcp” value (reference: Hovorka et al. (2019)) is reported as 0.043.

With `COc1cc(CC(C)=O)ccc1O` [guaiacylacetone] the “Henry solubility constant Hcp” value [7] was 12000.

In the case of `ClC1CCCCC1` [chlorocyclohexane], the “Henry solubility constant Hcp” value (reference: Bakierowska and Trzeszczyński (2003)) is reported as 0.0028.

For `CC(C)Cc1cnccn1` [2-isobutylpyrazine], the “Henry solubility constant Hcp” value [6] was 2.

In the case of `COCCOC` [1,2-dimethoxyethane], the “Henry solubility constant Hcp” value (reference: Ondo and Dohnal (2007)) is reported as 1.4.

With `C=CCc1ccc(O)c(OC)c1` [2-methoxy-4-(2-propenyl)-phenol] the “Henry solubility constant Hcp” value [7] was 9.2.

For `CC1=CCC(C(C)C)C=C1` (stereo not drawn) [α-phellandrene], the “Henry solubility constant Hcp” value (reference: Copolovici and Niinemets (2005)) was 0.00018.

In the case of `CC(Cl)CCC(Cl)C(Cl)CCC(Cl)CCl` (stereo not drawn) [pentachlorodecane isomers], the “Henry solubility constant Hcp” value (reference: Drouillard et al. (1998)) is reported as 0.2 and 0.38.

For `ClC1=C(Cl)[C@]2(Cl)[C@H]3[C@H](Cl)[C@@H](Cl)C[C@H]3[C@@]1(Cl)C2(Cl)Cl` [trans-chlordane], the “Henry solubility constant Hcp” value (reference: Jantunen and Bidleman (2006)) was 0.034.

In the case of `O=C(O)CCCC(=O)O` [pentanedioic acid], the “Henry solubility constant Hcp” value (reference: Mentel et al. (2004)) is reported as 1.9e+07.

In the case of `OCC(F)(F)F` [2,2,2-trifluoroethanol], the “Henry solubility constant Hcp” value (reference: Chen et al. (2003)) is reported as 0.47 and the “Henry solubility constant Hcp” value [5] is reported as 0.58.

For `CN=C=O` [methyl isocyanate], the “Henry solubility constant Hcp” value (reference: Roberts and Liu (2019)) was 0.013.

In the case of `C1=NCCC1` [1-pyrroline], the “Henry solubility constant Hcp” value [8] is reported as 1.6.

In the case of `Clc1ccccc1-c1ccccc1` [2-chlorobiphenyl], the “Henry solubility constant Hcp” value [4] is reported as 0.03.

With `ClC1C(Cl)C(Cl)C(Cl)C(Cl)C1Cl` (stereo not drawn) [α-1,2,3,4,5,6-hexachlorocyclohexane] the “Henry solubility constant Hcp” value (reference: Kucklick et al. (1991)) was 1.3 and the “Henry solubility constant Hcp” value (reference: Sahsuvar et al. (2003)) was 1.7.

In the case of `Clc1ccc(-c2ccccc2Cl)cc1Cl` [2,3',4'-trichlorobiphenyl], the “Henry solubility constant Hcp” value [2] is reported as 0.066 and the “Henry solubility constant Hcp” value (reference: Westcott et al. (1981)) is reported as 0.025.

For `CC(Cl)CCl` (centres undefined) [1,2-dichloropropane], the “Henry solubility constant Hcp” value (reference: Bissonette et al. (1990)) was 0.003, the “Henry solubility constant Hcp” value (reference: Bobadilla et al. (2003)) was 0.0042 and the “Henry solubility constant Hcp” value [9] was 0.0035.

For `CN` [methanamine], the “Henry solubility constant Hcp” value [10] was 0.89.

In the case of `FC(F)C(F)(F)F` [pentafluoroethane], the “Henry solubility constant Hcp” value (reference: Miguel et al. (2000)) is reported as 0.00031 and the “Henry solubility constant Hcp” value (reference: Reichl (1995)) is reported as 3.5e-05.

With `CCC(=O)C(C)=O` [2,3-pentanedione] the “Henry solubility constant Hcp” value (reference: Wu et al. (2022b)) was 0.13.

In the case of `C=CC(C)=O` [3-buten-2-one], the “Henry solubility constant Hcp” value (reference: Allen et al. (1998)) is reported as 0.21, the “Henry solubility constant Hcp” value (reference: Iraci et al. (1999)) is reported as 0.4 and the “Henry solubility constant Hcp” value (reference: Ji and Evans (2007)) is reported as 0.26.

In the case of `CCCCC/C=C/C=O` [(E)-2-octenal], the “Henry solubility constant Hcp” value [6] is reported as 0.13.

For `CC/C=C/C[C@@H]1C(=O)CC[C@H]1CC(=O)OC` [methyl jasmonate], the “Henry solubility constant Hcp” value (reference: Karl et al. (2008)) was 50.

For `O=Cc1ccccc1` [benzaldehyde], the “Henry solubility constant Hcp” value (reference: Allen et al. (1998)) was 0.35, the “Henry solubility constant Hcp” value (reference: Allou et al. (2011)) was 0.32 and the “Henry solubility constant Hcp” value [11] was 0.34.

In the case of `O=C(O)C(F)(F)C(F)(F)C(F)(F)C(F)(F)F` [perfluoropentanoic acid], the “Henry solubility constant Hcp” value (reference: Kwan (2001)) is reported as 0.67.

In the case of `C[CH2][Pb]([CH2]C)([CH2]C)[CH2]C` [tetraethyl lead], the “Henry solubility constant Hcp” value (reference: Feldhake and Stevens (1963)) is reported as 1.3e-05.

With `C=C(C)C(=O)O` [2-methyl-2-propenoic acid] the “Henry solubility constant Hcp” value (reference: Khan et al. (1992)) was 25.

In the case of `CNC(=O)Oc1cccc2c1OC(C)(C)C2` [carbofuran], the “Henry solubility constant Hcp” value [1] is reported as > 99.

In the case of `CCC1CCCCC1` [ethylcyclohexane], the “Henry solubility constant Hcp” value (reference: Dohányosová et al. (2004)) is reported as 2e-05 and the “Henry solubility constant Hcp” value (reference: Heidman et al. (1985)) is reported as 3.1e-05.

For `CC(C)(C)OC=O` [(1,1-dimethylethyl)-methanoate], the “Henry solubility constant Hcp” value (reference: Arp and Schmidt (2004)) was 0.014.

For `ClC(Cl)(Cl)C(Cl)(Cl)Cl` [hexachloroethane], the “Henry solubility constant Hcp” value (reference: Munz and Roberts (1986)) was 0.0034, the “Henry solubility constant Hcp” value (reference: Munz and Roberts (1987)) was 0.0025 and the “Henry solubility constant Hcp” value [9] was 0.001.

For `CC(CCl)OC(C)CCl` (centres undefined) [bis-(2-chloroisopropyl) ether], the “Henry solubility constant Hcp” value (reference: Kawamoto and Urano (1989)) was 0.42.

In the case of `C=CCSC` [allyl methyl sulfide], the “Henry solubility constant Hcp” value (reference: Schuhfried et al. (2011)) is reported as 0.0042.

In the case of `C#CCC` [1-butyne], the “Henry solubility constant Hcp” value [12] is reported as 0.00072.

For `CCCCCCC=O` [heptanal], the “Henry solubility constant Hcp” value (reference: Buttery et al. (1965)) was 0.06 and the “Henry solubility constant Hcp” value [11] was 0.035.

With `[CH3][Hg][CH3]` [dimethylmercury] the “Henry solubility constant Hcp” value (reference: Talmi and Mesmer (1975)) was 0.0013.

With `CC/C=C\CCC=O` [(Z)-4-heptenal] the “Henry solubility constant Hcp” value (reference: Straver and de Loos (2005)) was 0.088.

For `Cc1ccc(O)cc1` [1-hydroxy-4-methylbenzene], the “Henry solubility constant Hcp” value (reference: Dohnal and Fenclová (1995)) was 13, the “Henry solubility constant Hcp” value (reference: Feigenbrugel et al. (2004b)) was 10 and the “Henry solubility constant Hcp” value (reference: Parsons et al. (1972)) was 13.

In the case of `CN(C)C` [trimethylamine], the “Henry solubility constant Hcp” value [8] is reported as 0.076, the “Henry solubility constant Hcp” value [10] is reported as 0.095 and the “Henry solubility constant Hcp” value (reference: Leng et al. (2015a)) is reported as 0.084.

For `C#CC` [propyne], the “Henry solubility constant Hcp” value (reference: Inga and McKetta (1961)) was 0.00062 and the “Henry solubility constant Hcp” value [12] was 0.00077.

With `COc1cc(C)ccc1O` [4-methyl-2-methoxyphenol] the “Henry solubility constant Hcp” value (reference: Sagebiel et al. (1992)) was 7.7 and 7.1.

With `CC(C)CCO[N+](=O)[O-]` [3-methyl-1-butanol nitrate] the “Henry solubility constant Hcp” value (reference: Hauff et al. (1998)) was 0.005.

In the case of `Brc1cc(Br)c(Oc2cc(Br)c(Br)cc2Br)cc1Br` [2,2',4,4',5,5'-hexabromodiphenyl ether], the “Henry solubility constant Hcp” value [3] is reported as 3.5 and the “Henry solubility constant Hcp” value (reference: Long et al. (2017)) is reported as 3.7.

For `CC(Cc1ccc(C(C)(C)C)cc1)CN1CCCCC1` (centres undefined) [fenpropidin], the “Henry solubility constant Hcp” value (reference: Feigenbrugel and Le Calvé (2021)) was 710.

For `Clc1cccc(-c2ccccc2Cl)c1` [2,3'-dichlorobiphenyl], the “Henry solubility constant Hcp” value [2] was 0.047.

In the case of `CCCCOC(C)=O` [butyl ethanoate], the “Henry solubility constant Hcp” value (reference: Fenclová et al. (2014)) is reported as 0.035, the “Henry solubility constant Hcp” value (reference: Ioffe et al. (1984)) is reported as 0.035 and the “Henry solubility constant Hcp” value (reference: Kieckbusch and King (1979b)) is reported as 0.035.
